Key:
Test in all cases: relative viability (nuclei count vs DMSO), 5 days (fraction); higher = more cells survive
Nelarabine + Linsitinib = compound: COc1nc(N)nc2c1ncn2[C@@H]1O[C@H](CO)[C@@H](O)[C@@H]1O [Nelarabine] + C[C@]1(O)C[C@@H](c2nc(-c3ccc4ccc(-c5ccccc5)nc4c3)c3c(N)nccn32)C1 [Linsitinib] (partner 1 µM)
Procedure, shortened: (§1)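 Each reported value is a median over duplicate plates. It expresses relative viability: treated-well nuclei count divided by vehicle-well nuclei count. Lung cancer cell lines in 1536-well plates were dosed by pin tool a day after seeding, alone with one drug or with a fixed anchor-drug dose plus five library-drug doses (not always all listed) in √10 steps, and nuclei were counted after 5 days.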

Adavosertib + Decitabine = compound: C=CCn1c(=O)c2cnc(Nc3ccc(N4CCN(C)CC4)cc3)nc2n1-c1cccc(C(C)(C)O)n1 [Adavosertib] + Nc1ncn([C@H]2C[C@H](O)[C@@H](CO)O2)c(=O)n1 [Decitabine] (partner 2 µM)
Procedure, shortened: as §1

Adavosertib + Phenformin = compound: C=CCn1c(=O)c2cnc(Nc3ccc(N4CCN(C)CC4)cc3)nc2n1-c1cccc(C(C)(C)O)n1 [Adavosertib] + N=C(N)NC(=N)NCCc1ccccc1 [Phenformin] (partner 250 µM)
Procedure, shortened: as §1

Adavosertib + Luminespib = compound: C=CCn1c(=O)c2cnc(Nc3ccc(N4CCN(C)CC4)cc3)nc2n1-c1cccc(C(C)(C)O)n1 [Adavosertib] + CCNC(=O)c1noc(-c2cc(C(C)C)c(O)cc2O)c1-c1ccc(CN2CCOCC2)cc1 [Luminespib] (partner 0.01 µM)
Procedure, shortened: as §1

Cell Line	relative viability (Nelarabine + Linsitinib; first compound 0.01 µM)	relative viability (Nelarabine + Linsitinib; first compound 0.03162 µM)	relative viability (Nelarabine + Linsitinib; first compound 0.1 µM)	relative viability (Nelarabine + Linsitinib; first compound 0.3162 µM)	relative viability (Nelarabine + Linsitinib; first compound 1 µM)	relative viability (Adavosertib + Decitabine; first compound 0.01 µM)	relative viability (Adavosertib + Decitabine; first compound 0.03162 µM)	relative viability (Adavosertib + Decitabine; first compound 0.1 µM)	relative viability (Adavosertib + Decitabine; first compound 0.3162 µM)	relative viability (Adavosertib + Phenformin; first compound 0.01 µM)	relative viability (Adavosertib + Phenformin; first compound 0.03162 µM)	relative viability (Adavosertib + Phenformin; first compound 0.1 µM)	relative viability (Adavosertib + Phenformin; first compound 0.3162 µM)	relative viability (Adavosertib + Luminespib; first compound 0.01 µM)	relative viability (Adavosertib + Luminespib; first compound 0.03162 µM)	relative viability (Adavosertib + Luminespib; first compound 0.1 µM)	relative viability (Adavosertib + Luminespib; first compound 0.3162 µM)
SK-MES-1	1.15	1.09	1.03	1.1	1.08	0.368	0.385	0.364	0.227	0.66	0.704	0.635	0.208	0.604	0.723	0.559	0.236
NCI-H2170						0.426	0.452	0.5	0.429	0.444	0.404	0.407	0.441	0.592	0.747	0.626	0.479
NCI-H1648						0.491	0.527	0.448	0.422								
UMC-11	1.34	0.768	0.949	0.987	0.896	0.646	0.606	0.608	0.654	0.341	0.315	0.318	0.29	1.02	0.936	1.15	1
HCC-15	1.06	0.841	0.904	0.87	1	0.714	0.719	0.667	0.858	0.474	0.471	0.494	0.504	0.309	0.325	0.334	0.359
HCC-78	0.627	0.506		0.536	0.574	0.661	0.679	0.731	0.618	0.582	0.744	0.821	0.704				
NCI-H647	1.7	1.02	1.26	1.21	1.35	0.432	0.455	0.456	0.322	0.495	0.533	0.354	0.249	0.128	0.179	0.151	0.136
NCI-H2009	1.29	1.26	1.14	1.23	1.19	0.362	0.419	0.414	0.37	0.486	0.551	0.496	0.427	1.01	1.07	1.06	0.888
NCI-H520	1.19	0.889	1.24	1.08	1.05	0.488	0.525	0.555	0.473	0.667	0.547	0.657	0.757	0.227	0.214	0.243	0.213
RERF-LC-KJ	0.908	1.06	0.915	0.907	0.884	0.669	0.718	0.775	0.714	0.363	0.381	0.4	0.439	1.32	1.33	1.29	1.16
NCI-H441	0.679	0.605	0.614	0.52	0.603	0.29	0.266	0.264	0.289	0.876	0.78	1.09	0.765	0.291	0.346	0.418	0.276
NCI-H1666	0.911	0.766	0.906	0.797	0.788	0.629	0.616	0.73	0.703	0.549	0.562	0.636	0.594	0.977	0.946	0.994	1.02
NCI-H1755	1.01	0.999	0.989	1.1	0.995	0.717	0.689	0.775	0.725	0.643	0.615	0.613	0.63	0.417	0.616	0.342	0.531
COR-L23	1.12	0.996	1	0.911	1.06	0.45	0.523	0.45	0.277	0.433	0.465	0.442	0.267	0.614	0.61	0.667	0.232
SK-LU-1	1.45	0.835	1.1	1.11	1.35	0.616	0.64	0.631	0.461	0.57	0.484	0.458	0.223	0.19	0.201	0.249	0.169
SW 900						0.442	0.464	0.461	0.312		0.75	0.564	0.387		0.195	0.169	0.156
PC-3 [JPC-3]	1.05	0.958	0.943	0.942	0.975		0.906	0.926	0.78	0.458	0.46	0.498	0.488	0.665	0.746	0.657	0.724
EKVX	1.08	0.849	0.851	1.19	0.941	0.329	0.388	0.383	0.4	0.249	0.238	0.227	0.234	0.875	0.853	0.84	0.967
NCI-H322M	1.05	1.11	0.816	0.901	0.924	0.724	0.67	0.698	0.526	0.737	0.759	0.656	0.342	0.764	0.789	0.57	0.398
NCI-H2087	1.06	0.897	1.06	1.05	0.914	0.24	0.347	0.276	0.277	0.456	0.442	0.525	0.461	0.208	0.187	0.194	0.195
NCI-H2405	0.98	0.853	0.898	0.966	0.872		0.761	0.794	0.698	0.458	0.414	0.405	0.396	0.556	0.805	0.773	0.69
